Assay results as given in article PMC7479006, “Effect of high-fat diet on the pharmacokinetics and safety of flumatinib in healthy Chinese subjects” (Cancer Chemotherapy and Pharmacology, 2020).
Like-named read-outs stand apart in the source and are kept apart here. Each block holds one compound with its values, some of them ahead of it.

Assays:
[1] = in vivo; cited from earlier work
[2] = human, in vivo
Protocol: (§1) The subjects were randomized 24 h in advance in one of the two following groups. Group A: at least 10 h after fasting, oral flumatinib administration of 400 mg (2 tablets, day 1, first dose); the washout period was 14 days, half an hour after high-fat diet (timed from the start of diet) oral flumatinib administration of 400 mg (2 tablets, day 15,second dose). Subjects in group B followed the opposite administration sequence from those in group A. In groups A and B, the high-fat diet contained 800 ~ 1000Kcal (about 50% from fat) (meal composition is detailed Table 1).
(§2) Blood samples for pharmacokinetic (PK) evaluation were collected at 0 h before the initiation of dosing (pre-dose), and at 0.5, 1, 1.5, 2, 2.5, 3, 4, 5, 6, 8, 10, 12, 24, 48, 72, and 96 h after dosing. Blood samples were centrifuged at 2000g for 10 min at 4 ℃. Centrifugation was completed within 60 min after sample collection. The plasma was stored at − 70 °C for further analysis. Plasma concentrations of flumatinib and its main metabolites (M1 and M3) were determined using liquid chromatography-mass spectrometry (LC–MS/MS) [20].
(§3) Phoenix WinNonlin Version 7.0 (Pharsight Corporation, Sunnyvale, CA, USA) software was used to calculate the pharmacokinetic parameters (Tmax, Cmax, AUC0–t, AUC0–∞, t1/2, V/F, CL/F) of flumatinib and its main metabolites using a non-compartmental method (NCA module). Linear Up Log Down trapezoidal method was used for AUC calculation. The BE module of WinNonLin was used to analyze AUC0–t, AUC0–∞, and Cmax of flumatinib in fed and fasting states after logarithmic conversion. The treatment group (fasting, high-fat diet), the treatment sequence (A, B), and treatment phase were fixed effects in the model, and the subjects nested in the sequence were random effects. The adjusted mean difference (fasting/high-fat diet) and its 90% confidence interval estimated by the model, were taken as the negative number to obtain the corresponding PK parameter geometric mean ratio (postprandial/fasting), to estimate its 90% confidence interval, and to evaluate the effect of a high-fat diet on the pharmacokinetics of flumatinib.

[3] = preclinical studies; tissue drug concentration higher than plasma concentration; cited from earlier work
[4] = Biopharmaceutics Classification System (BCS) class; format: physicochemical; details: based on the BCS Guidance of the year 2000
[5] = design: method as in PMID 20703259; details: doses in the range of 200–1000 mg; cited from earlier work
[6] = beagles, oral administration, preclinical studies; cited from earlier work
[7] = Safety evaluation (adverse events, NCI CTCAE v4.03) after a single oral 400 mg dose of flumatinib mesylate; format: in vivo, human (healthy Chinese subjects); design: TEAE, Incidence rate / TEAE related to the study drug, Incidence rate / SAE related to the study drug, Incidence rate / TEAE related to death, Incidence rate / TEAE related to withdrawal, Incidence rate: unit not given here
Protocol: All subjects who participated in the study were included in the safety analysis. Safety was evaluated by vital signs, physical examination, ECG, laboratory examination, adverse events (AEs), and combined medication. All adverse events that occurred during the trial were classified into mild, moderate and severe levels based on NCI CTCAE v4.03.

[8] = Pharmacokinetics of flumatinib, M1 and M3 in plasma after a single oral 400 mg dose of flumatinib mesylate tablets, fasting vs high-fat diet (LC-MS/MS, non-compartmental); details: for AUC0-∞ LSGM ratio high-fat diet/fasting (%) (90% CI) / AUC0–t LSGM ratio high-fat diet/fasting (%) (90% CI) / Cmax LSGM ratio high-fat diet/fasting (%) (90% CI): N = 11, single oral 400 mg; for AUC(0-inf) / AUC(0-t) / Cmax / MRT / Tmax / half-life: human, po, 400 mg; for Tmax: Tmax median(range)
Protocol: as §1, §2, §3

[9] = rats, oral administration, preclinical studies; cited from earlier work
[10] = design: method as in PMID 26096139; details: healthy subjects; cited from earlier work
[11] = design: method as in PMID 18024884; details: cited from earlier work
[12] = design: method as in PMID 25511575; details: healthy subjects; cited from earlier work
[13] = Fasting, the first period (N = 6)
[14] = Fasting, the second period (N = 5)
[15] = High-fat diet, the first period (N = 6)
[16] = High-fat diet, the second period (N = 6)
[17] = Fasting (N = 11), mean ± SD, single oral 400 mg, listed as Flumatinib
[18] = High-fat diet (N = 12), mean ± SD, single oral 400 mg
[19] = High-fat diet (N = 12), mean ± SD, single oral 400 mg, listed as Flumatinib

AUC0–t [2]: 231 ± 101 ng·h/mL | Cmax [2]: 54.7 ± 25.5 ng/mL | Increase of AUC0–t after high-fat diet over fasted state ([2]; po, 400 mg): 1.6 fold | Increase of AUC0–∞ after high-fat diet over fasted state ([2]; po, 400 mg): 1.6 fold | Increase of Cmax after high-fat diet over fasted state ([2]; po, 400 mg): 1.9 fold
Compound: Cc1ncc(NC(=O)c2ccc(CN3CCNCC3)c(C(F)(F)F)c2)cc1Nc1nccc(-c2cccnc2)n1 [M1, N-desmethyl flumatinib]
Metabolite in plasma relative to the parent drug in plasma [1]: approximately 10%

Compound: Cc1ncc(NC(=O)c2ccc(CN3CCN(C)CC3)c(C(F)(F)F)c2)cc1Nc1nccc(-c2cccnc2)n1 [flumatinib]
Tissue distribution [3]: widely distributed in tissues | BCS class [4]: BCS Class III | Dose relation of Cmax and AUC0–t [5]: linearly related to doses | Time to maximum blood concentration [6]: about 5 h | SAE related to the study drug, Incidence rate [7, 13]: 0.0 | SAE related to the study drug, Number [7, 13]: 0 | SAE related to the study drug, Time [7, 13]: 0 | TEAE related to death, Incidence rate [7, 13]: 0.0 | TEAE related to death, Number [7, 13]: 0 | TEAE related to death, Time [7, 13]: 0 | TEAE related to the study drug, Incidence rate [7, 13]: 83.3 | TEAE related to the study drug, Number [7, 13]: 5 | TEAE related to the study drug, Time [7, 13]: 11 | TEAE related to withdrawal, Incidence rate [7, 13]: 0.0 | TEAE related to withdrawal, Number [7, 13]: 0 | TEAE related to withdrawal, Time [7, 13]: 0 | TEAE, Incidence rate [7, 13]: 100.0 | TEAE, Number [7, 13]: 6 | TEAE, Time [7, 13]: 14 | SAE related to the study drug, Incidence rate [7, 14]: 0.0 | SAE related to the study drug, Number [7, 14]: 0 | SAE related to the study drug, Time [7, 14]: 0 | TEAE related to death, Incidence rate [7, 14]: 0.0 | TEAE related to death, Number [7, 14]: 0 | TEAE related to death, Time [7, 14]: 0 | TEAE related to the study drug, Incidence rate [7, 14]: 60.0 | TEAE related to the study drug, Number [7, 14]: 3 | TEAE related to the study drug, Time [7, 14]: 4 | TEAE related to withdrawal, Incidence rate [7, 14]: 0.0 | TEAE related to withdrawal, Number [7, 14]: 0 | TEAE related to withdrawal, Time [7, 14]: 0 | TEAE, Incidence rate [7, 14]: 60.0 | TEAE, Number [7, 14]: 3 | TEAE, Time [7, 14]: 5 | SAE related to the study drug, Incidence rate ([7]; Fasting, total (N = 11)): 0.0 | SAE related to the study drug, Number ([7]; Fasting, total (N = 11)): 0 | SAE related to the study drug, Time ([7]; Fasting, total (N = 11)): 0 | TEAE related to death, Incidence rate ([7]; Fasting, total (N = 11)): 0.0 | TEAE related to death, Number ([7]; Fasting, total (N = 11)): 0 | TEAE related to death, Time ([7]; Fasting, total (N = 11)): 0 | TEAE related to the study drug, Incidence rate ([7]; Fasting, total (N = 11)): 72.7 | TEAE related to the study drug, Time ([7]; Fasting, total (N = 11)): 15 | TEAE related to withdrawal, Incidence rate ([7]; Fasting, total (N = 11)): 0.0 | TEAE related to withdrawal, Number ([7]; Fasting, total (N = 11)): 0 | TEAE related to withdrawal, Time ([7]; Fasting, total (N = 11)): 0 | TEAE, Incidence rate ([7]; Fasting, total (N = 11)): 81.8 | TEAE, Time ([7]; Fasting, total (N = 11)): 19 | SAE related to the study drug, Incidence rate [7, 15]: 0.0 | SAE related to the study drug, Number [7, 15]: 0 | SAE related to the study drug, Time [7, 15]: 0 | TEAE related to death, Incidence rate [7, 15]: 0.0 | TEAE related to death, Number [7, 15]: 0 | TEAE related to death, Time [7, 15]: 0 | TEAE related to the study drug, Incidence rate [7, 15]: 50.0 | TEAE related to the study drug, Number [7, 15]: 3 | TEAE related to the study drug, Time [7, 15]: 6 | TEAE related to withdrawal, Incidence rate [7, 15]: 16.7 | TEAE related to withdrawal, Number [7, 15]: 1 | TEAE related to withdrawal, Time [7, 15]: 1 | TEAE, Incidence rate [7, 15]: 100.0 | TEAE, Number [7, 15]: 6 | TEAE, Time [7, 15]: 18 | SAE related to the study drug, Incidence rate [7, 16]: 0.0 | SAE related to the study drug, Number [7, 16]: 0 | SAE related to the study drug, Time [7, 16]: 0 | TEAE related to death, Incidence rate [7, 16]: 0.0 | TEAE related to death, Number [7, 16]: 0 | TEAE related to death, Time [7, 16]: 0 | TEAE related to the study drug, Incidence rate [7, 16]: 66.7 | TEAE related to the study drug, Number [7, 16]: 4 | TEAE related to the study drug, Time [7, 16]: 6 | TEAE related to withdrawal, Incidence rate [7, 16]: 0.0 | TEAE related to withdrawal, Number [7, 16]: 0 | TEAE related to withdrawal, Time [7, 16]: 0 | TEAE, Incidence rate [7, 16]: 66.7 | TEAE, Number [7, 16]: 4 | TEAE, Time [7, 16]: 7 | SAE related to the study drug, Incidence rate ([7]; High-fat diet, total (N = 12)): 0.0 | SAE related to the study drug, Number ([7]; High-fat diet, total (N = 12)): 0 | SAE related to the study drug, Time ([7]; High-fat diet, total (N = 12)): 0 | TEAE related to death, Incidence rate ([7]; High-fat diet, total (N = 12)): 0.0 | TEAE related to death, Number ([7]; High-fat diet, total (N = 12)): 0 | TEAE related to death, Time ([7]; High-fat diet, total (N = 12)): 0 | TEAE related to the study drug, Incidence rate ([7]; High-fat diet, total (N = 12)): 58.3 | TEAE related to the study drug, Time ([7]; High-fat diet, total (N = 12)): 12 | TEAE related to withdrawal, Incidence rate ([7]; High-fat diet, total (N = 12)): 8.3 | TEAE related to withdrawal, Number ([7]; High-fat diet, total (N = 12)): 1 | TEAE related to withdrawal, Time ([7]; High-fat diet, total (N = 12)): 1 | TEAE, Incidence rate ([7]; High-fat diet, total (N = 12)): 83.3 | TEAE, Time ([7]; High-fat diet, total (N = 12)): 25 | TEAE incidence ([7]; fasting group): 81.8% | TEAE related to the study drug, incidence ([7]; fasting group): 72.7% | TEAE incidence ([7]; high-fat diet group): 83.3% | TEAE related to the study drug, incidence ([7]; high-fat diet group): 58.3% | Safety and tolerability ([7]; single oral dose of 400 mg, fasting or high-fat diet): safe and well tolerated | CL/F ([8]; Fasting (N = 11), mean ± SD, single oral 400 mg): 399 ± 229 L/h | CL/F [8, 17]: 661 ± 380 L/h | V/F [8, 17]: 11,700 ± 5130 L | CL/F [8, 18]: 661 ± 380 L/h | V/F [8, 18]: 11700 ± 5130 L | CL/F [8, 19]: 399 ± 229 L/h | V/F [8, 19]: 8470 ± 4130 L | AUC0-∞ LSGM ratio high-fat diet/fasting (%) (90% CI) [8]: 166.87% | AUC0–t LSGM ratio high-fat diet/fasting (%) (90% CI) [8]: 167.43% | Cmax LSGM ratio high-fat diet/fasting (%) (90% CI) [8]: 281.65% | AUC0-∞ LSGM ratio high-fat diet/fasting (%) (90% CI) ([8]; listed as Flumatinib): 167 (143, 194) % | AUC0–t LSGM ratio high-fat diet/fasting (%) (90% CI) ([8]; listed as Flumatinib): 167 (144, 195) % | Cmax LSGM ratio high-fat diet/fasting (%) (90% CI) ([8]; listed as Flumatinib): 282 (226, 351) % | AUC(0-inf) ([8]; plasma, AUC0-∞ (least-square geometric mean), Fasting (N = 11), food-effect analysis, single oral 400 mg): 710 ng·h/mL | AUC(0-inf) ([8]; plasma, AUC0-∞ (least-square geometric mean), High-fat diet (N = 11), food-effect analysis, single oral 400 mg): 1180 ng·h/mL | AUC(0-inf) ([8]; plasma, AUC0-∞, Fasting (N = 11), mean ± SD, single oral 400 mg): 847 ± 572 ng·h/mL | AUC(0-inf) ([8]; plasma, AUC0-∞, High-fat diet (N = 12), mean ± SD, single oral 400 mg): 1280 ± 586 ng·h/mL | AUC(0-t) ([8]; plasma, AUC0–t (least-square geometric mean), Fasting (N = 11), food-effect analysis, single oral 400 mg): 696 ng·h/mL | AUC(0-t) ([8]; plasma, AUC0–t (least-square geometric mean), High-fat diet (N = 11), food-effect analysis, single oral 400 mg): 1170 ng·h/mL | AUC(0-t) ([8]; plasma, AUC0–t, Fasting (N = 11), mean ± SD, single oral 400 mg): 832 ± 566 ng·h/mL | AUC(0-t) ([8]; plasma, AUC0–t, High-fat diet (N = 12), mean ± SD, single oral 400 mg): 1260 ± 582 ng·h/mL | Cmax ([8]; plasma, Cmax (least-square geometric mean), Fasting (N = 11), food-effect analysis, single oral 400 mg): 43.7 ng/mL | Cmax ([8]; plasma, Cmax (least-square geometric mean), High-fat diet (N = 11), food-effect analysis, single oral 400 mg): 123 ng/mL | Cmax ([8]; plasma, Cmax, Fasting (N = 11), mean ± SD, single oral 400 mg): 50.7 ± 32.5 ng/mL | Cmax ([8]; plasma, Cmax, High-fat diet (N = 12), mean ± SD, single oral 400 mg): 132 ± 54.5 ng/mL | MRT ([8]; plasma, Fasting (N = 11), mean ± SD, single oral 400 mg): 17.2 ± 3.66 h | MRT ([8]; plasma, High-fat diet (N = 12), mean ± SD, single oral 400 mg): 19.2 ± 3.37 h | Tmax ([8]; plasma, Fasting (N = 11), single oral 400 mg): 2.5 h | Tmax ([8]; plasma, High-fat diet (N = 12), single oral 400 mg): 3 h | half-life ([8]; plasma, t1/2, Fasting (N = 11), mean ± SD, single oral 400 mg): 13.3 ± 2.52 h | half-life ([8]; plasma, t1/2, High-fat diet (N = 12), mean ± SD, single oral 400 mg): 15.5 ± 4.67 h | Increase in the exposure when taken with food ([8]; single oral 400 mg): 67% | Increase of AUC0–∞ after high-fat diet over fasted state ([8]; single oral 400 mg, plasma): 1.6 fold | Increase of Cmax after high-fat diet over fasted state ([8]; single oral 400 mg, plasma): nearly tripled | Time to maximum blood concentration [9]: about 5 h

Compound: N#Cc1ccnc(N2C(=O)CC[C@H]2C(=O)N(c2cncc(F)c2)[C@H](C(=O)NC2CC(F)(F)C2)c2ccccc2Cl)c1 [ivosidenib]
Increase in Cmax after a high-fat diet compared to fasting [10]: 98%

Compound: CS(=O)(=O)CCNCc1ccc(-c2ccc3ncnc(Nc4ccc(OCc5cccc(F)c5)c(Cl)c4)c3c2)o1 [lapatinib]
Increase in bioavailability after high-fat diet [11]: 325% | Increase in bioavailability after low-fat diet [11]: 167%

Compound: Cc1cn(-c2cc(NC(=O)c3ccc(C)c(Nc4nccc(-c5cccnc5)n4)c3)cc(C(F)(F)F)c2)cn1 [nilotinib]
AUC higher when taken with food than fasting [12]: 82% | Cmax higher when taken with food than fasting [12]: 112%
